ChEMBL document CHEMBL5120906, “Oxalierpenes A and B, Unusual Indole-Diterpenoid Derivatives with Antiviral Activity from a Marine-Derived Strain of the Fungus Penicillium oxalicum” (J Nat Prod, 2022)

Experiments:
[1] = Cytotoxicity against human HEp-2 cells assessed as reduction in cell viability; type: toxicity, cell-based
[2] = Cytotoxicity against dog MDCK cells assessed as reduction in cell viability; type: toxicity, cell-based, Canis lupus familiaris
[3] = test system: Respiratory syncytial virus; assay: Antiviral activity against Respiratory syncytial virus infected in human HEp-2 cells assessed as inhibition of virus-induced cytopathic effect by CPE inhibition assay; type: functional, organism-based
Influenza A virus = assay: Antiviral activity against Influenza A virus A/WSN/33(H1N1) infected in dog MDCK cells assessed as inhibition of virus-induced cytopathic effect by CPE inhibition assay; type: functional, organism-based
[4] = Therapeutic index, ratio of CC50 for Cytotoxicity against dog MDCK cells to IC50 for Antiviral activity against Influenza A virus A/WSN/33(H1N1) infected in dog MDCK cells; type: toxicity, cell-based; conditions: read-out: Ratio CC50/IC50
[5] = Therapeutic index, ratio of CC50 for Cytotoxicity against human HEp-2 cells to IC50 for Antiviral activity against Respiratory syncytial virus infected in human HEp-2 cells; type: toxicity, cell-based; conditions: read-out: Ratio CC50/IC50

| Compound | CC50 [1] | CC50 [2] | IC50 [3] | IC50 (Influenza A virus) | selectivity ratio [4] | selectivity ratio [5] |
| --- | --- | --- | --- | --- | --- | --- |
| CC1(C)C=C2C(=Cc3cc4c5c([nH]c4cc32)[C@@]2(C)[C@@H](CCC3=C([C@@H]4OC(C)(C)[C@@H](O)C4=O)C(=O)CC[C@@]32C)C5)C(C)(C)O1 | 31 µM | 27 µM | 6.7 µM | 9.4 µM | 2.8 | 4.6 |
| CC1(C)C=C2C(=Cc3cc4c5c([nH]c4cc32)[C@@]2(C)[C@@H](CC[C@@]34O[C@@]6(O)[C@H](O)C(C)(C)O[C@H]6[C@@H]3C(=O)CC[C@]24C)C5)C(C)(C)O1 | 15 µM | 13 µM | 2.8 µM | 3.7 µM | 3.5 | 5.5 |
| NC(=O)c1nc(F)c[nH]c1=O [FAVIPIRAVIR] |  | > 1000 µM |  |  | > 28 |  |
| NC(=O)c1ncn([C@@H]2O[C@H](CO)[C@@H](O)[C@H]2O)n1 [RIBAVIRIN] | > 1000 µM |  | 19 µM |  |  | > 54 |
